This is an account of results in patent publication US20260130936A1, “COMPOSITIONS COMPRISING AN ACTIVE INGREDIENT MIXTURE COMPRISING SILICON AND BIOTIN AND METHODS OF USE” (Nutrition21, LLC, priority 2022, published 2026).

In one data set the test system is hair and nail growth. The data set can be described thus: Hair density, anagen ratio, telogen ratio, nail growth and molecular analysis in rats (Example 4). In kind it is in vivo, Sprague-Dawley rats. The procedure:
Twenty-eight female Sprague-Dawley rats (8 weeks old) were randomized into one of the following groups: (i) group (control), shaved; (ii) group (ASI), shaved+ASI (4.14 mg/rat/day); (iii) group (ASI+MgB I), shaved+ASI (4.14 mg/rat/day)+MgB (48.7 μg/rat/day); and (iv) group (ASI+MgB II), shaved+ASI (4.14 mg/rat/day)+MgB (325 μg/rat/day). On day 42, compared with the control group, while hair density (p<0.05, p<0.01, and p<0.0001, respectively) and anagen ratio (p<0.01, p<0.01, and p<0.001) increased in the ASI, ASI+MgB I, and ASI+MgB II groups, telogen ratio decreased (p<0.01, p<0.01, and p<0.001, respectively). In the molecular analysis, VEGF, HGF, and KGF-2 increased in the ASI (p<0.01, p<0.01, and p<0.05, respectively), ASI+MgB I (p<0.0001 for all), and ASI+MgB II (p<0.0001 for all) groups when compared to the control group. […] SIRT-1 and β-catenin increased in the ASI (p<0.05 and p<0.01), ASI+MgB I (p<0.001 for both), and ASI+MgB II (p<0.0001 for both) groups. Wnt-1 increased in the ASI+MgB I (p<0.001) and ASI+MgB II (p<0.0001) groups.

The conditions of data set [1]: preclinical models; compared to D-biotin; cited from earlier work.
Another data set in a line: Water solubility. Type of data set: physicochemical. The settings on record: greater than biotin.
Setting [2] is: day 42, compared with the control group.

For “inositol-stabilized arginine silicate complex [ASI]”, in the data set on hair and nail growth (setting [2]), the anagen ratio result is recorded as “increased”, the hair density entry is recorded as “increased” and the telogen ratio result was “decreased”. Besides, in the data set with hair and nail growth (molecular analysis), the “SIRT-1 and β-catenin” value was “increased”. In the data set with hair and nail growth (molecular analysis, compared to the control group), the “VEGF, HGF, and KGF-2” value is “increased”. In addition, the nail growth entry in the data set on hair and nail growth (rats) is listed as “did not affect nail growth”.

Regarding magnesium biotinate, the “absorption and uptake in tissue” value in data set [1] was “superior absorption and greater uptake in tissue”. Further, in the data set “Water solubility”, the “water solubility relative to biotin” value is “about 40 times”.
